Test results as given in patent US20200022957A1, “KINASE AND UBIQUITIN LIGASE INHIBITORS AND USES THEREOF” (ALDA S.R.L., priority 2015, published 2020).

Experiments:
NCC mutant (R948X) = experiment: Proteostasis of NCC mutant in transfected CFBE cells (western blotting); type: cell-based
Experimental: (§1) C. CFBE cells were treated with 5 μM oxozeaenol for 48 h, or with MLK3 siRNA, or with both, and the correction of the F508del-CFTR folding/trafficking defect was monitored by changes in the levels of band C. There was no additive effect observed with the combination of MLK3 downregulation and oxozeaenol treatment. The quantitated band C levels are expressed as mean±SD (n>3). D. CFBE cells were treated with 5 μM oxozeaenol for 24 h, and the activity of the JNK pathway was measured by western blotting for phospho c-jun levels and F508del-CFTR. […] E. CFBE cells were treated with flunarizine (at concentrations 6.25-50 μM) targeting the CAMKK2 pathway for 48 h and the effect on F508del-CFTR proteostasis measured by western blotting. Treatment with flunarizine increased the levels of band C of F508del-CFTR. […] F. CFBE cells transiently transfected with the P-glycoprotein mutant (P-gp DY490), the NCC mutant (R948X), or the hERG mutant (G601S) were treated with JNKi II for 24 h, and the effect of the drug on their proteostasis monitored by western blotting.
(§2) The level of correction obtained with these inhibitors is higher than the effects of the corrector compounds from which the pathways were deduced (FIG. 3A), and similar to, or higher than, the effects of VX-809. […]

ATP7B R778L = ATP7B R778L translocation from ER to Golgi in HeLa cells (fluorescence microscopy); type: cell-based, human; conditions: JNKi II 5 μM, 48 h, fraction of protein in Golgi by fluorescence microscopy, DMSO control 12
From the text: Inventors next examined the effects of the MLK3 pathway inhibition on the proteostasis of other conformational disease mutants. Inventors transfected CFBE (and HeLa) cells with different conformational mutants (i.e., Sodium-chloride symporter [NCC, [MUT] mutant]; P-glycoprotein, [P-gp, [MUT] and DY490 mutants]; human Ether-a-go-go-Related Gene [hERG, [MUT] mutant]; Wilson's disease associated protein [ATP7B, [MUT] and [MUT] mutants]) and then treated cells with JNKi II and monitored these proteins by assessing changes in their glycosylation patterns (NCC, P-gp, hERG mutants) or in their intracellular movement from the ER to the Golgi complex (ATP7B mutants). […] CFBE or HeLa cells (in case of ATP7B) were transfected with constructs encoding the indicated mutant proteins and treated with JNKi II for 48 h.

ATP7BH1069Q = experiment: Immunofluorescence assay for correction of ATP7B: cells with ATP7BH1069Q signal in the ER, HeLa cells; type: cell-based, human; conditions: 24 h, SB202190 5 μM, VX-745 1 μM, SP600125 2 μM, Oxozeaenol 5 μM, 100 μM CuSO4 2 h
Experimental: (A) HeLa cells were infected with Ad-ATP7BWT-GFP (Chesi et al., 2016) or Ad-ATP7BH1069Q-GFP, incubated overnight with 200 μM BCS, and incubated for an additional 2 h with 100 μM CuSO4. In response to Cu, ATP7BWT traffics from the Golgi to PM and vesicle, while ATP7BH1069Q are retained within the ER under high Cu conditions. Addition of p38 inhibitor SB202190 (5 μM), VX-745(1 μM), JNK inhibitor SP600125 (2 μM) and Oxozeaenol (5 μM) (as indicated in corresponding panels) to the cells 24 h corrects ATP7BH1069Q from the ER to PM and vesicles (arrows) (B) Cells were treated as in panel A. The percentage of the cells (average±SD, n=50 fields) with an ATP7B signal in the ER, were calculated.
Cells were fixed with 4% paraformaldehyde in 0.2 M HEPES for 10 mins, permeabilized, labeled with primary and secondary antibodies, and examined with a ZEISS LSM 700 confocal microscope equipped with a 63×1.4 numerical aperture oil objective. The cells were scored based on the disappearance of ATP7B from the ER.

hERG mutant (G601S) = experiment: Proteostasis of hERG mutant in transfected CFBE cells (western blotting); type: cell-based, human
Experimental: as §1, §2

F508del-CFTR = F508del-CFTR proteostasis by western blotting (ER band B / Golgi-processed band C) in CFBE cells; type: cell-based, human; conditions: 48 h, concentration series
Experimental: Cells were washed three times in ice-cold Dulbecco's phosphate-buffered saline, and lysed in RIPA buffer (150 mM NaCl, 1% Triton X-100, 0.5% deoxycholic acid, 0.1% SDS, 20 mM Tris-HCl, pH 7.4), supplemented with protease inhibitor cocktail and phosphatase inhibitors. The lysates were clarified by centrifugation at 15000×g for 15 min, and the supernatants were resolved by SDS-PAGE. BCA Protein Assay kit (Pierce) was used to quantitate protein levels before loading. The western blots were decorated with appropriate antibodies and developed using ECL. The blots were then exposed to x-ray films and exposure time was varied to obtain optimal signal. The x-ray films were then scanned and the bands were quantitated using ImageJ gel-analysis tool. The protein concentration and the exposures used for quantitation of the blots were optimized to be in a linear range of detection.
Inventors then turned to experimental validation of the role of the CORE genes in the regulation of F508del-CFTR proteostasis. Experiments were carried out using a characterised biochemical assay that detects both the amount of core-glycosylated CFTR trapped in the ER (band B with Western blotting) and the amount of CFTR fully glycosylated in the Golgi (most of which presumably resides at the PM; band C with Western blotting).

[1] = system: P-glycoprotein mutant (P-gp DY490); experiment: Proteostasis of P-glycoprotein mutant in transfected CFBE cells (western blotting); type: cell-based
Experimental: as §1, §2

ATP7B H1069Q = experiment: Morphological assay of ATP7B H1069Q exit from ER to Golgi in HeLa cells (fluorescence microscopy); type: cell-based, human; conditions: ATP7B H1069Q; JNKi II 5 μM, 48 h; HeLa cells; fraction of protein in Golgi by fluorescence microscopy; DMSO control 32
Experimental: Cells were transfected with ATP7B-WT-GFP or ATP7B-H1069Q-GFP, incubated overnight with 200 μM BCS and/or drugs. Fixed cells were further labeled for TGN46 to mark and visualize the Golgi area under a confocal microscope. Under low copper conditions ATP7B-WT traffics to the Golgi from the ER, while ATP7B-H1069Q is retained within the ER. If the drug treatments induce the rescue of trafficking from the ER to the Golgi, the ATP7B-H1069Q-GFP fluorescence in the Golgi area increases. This is measured by quantifying (in 10 different microscopy fields in 100 cells) the increased in fluorescence of ATP7BWT-GFP or ATP7BH1069Q-GFP in the Golgi area (marked by TGN46) and normalizing this value to total cell fluorescence
CFBE or HeLa cells (in case of ATP7B) were transfected with constructs encoding the indicated mutant proteins and treated with JNKi II for 48 h.

O=C1c2ccccc2-c2n[nH]c3cccc1c23 [JNKi II]
proteostasis of NCC mutant (R948X), levels of bands B and C (NCC mutant (R948X); JNKi II 24 h): enhanced degradation
Correction (% of wild type) (NCC mutant (R948X); table row 'NCC G601S', JNKi II 5 μM, 48 h, protein processed by the Golgi, DMSO control 10): 9 % of wild type
Correction (% of wild type) (ATP7B R778L): 40 % of wild type
percentage of the cells exhibiting ATP7BH1069Q in the ER (ATP7BH1069Q): reduced
proteostasis of hERG mutant (G601S), levels of bands B and C (hERG mutant (G601S); JNKi II 24 h): enhanced degradation
Correction (% of wild type) (hERG mutant (G601S); table row 'hERG R948X', JNKi II 5 μM, 48 h, protein processed by the Golgi, DMSO control 44): 24 % of wild type
levels of band B and band C of F508del-CFTR (F508del-CFTR): robust increases
trafficking of P-gp DY490 out of the ER (Golgi-associated band C) ([1]; JNKi II 24 h): enhanced
Correction (% of wild type) ([1]; P-Glycoprotein DY490, JNKi II 5 μM, 48 h, protein processed by the Golgi, DMSO control 24): 44 % of wild type
Correction (% of wild type) (ATP7B H1069Q): 80 % of wild type
